Experimental data as given in patent US20060121072A1, “Topical parasiticide formulations and methods of treatment” (priority 2002, published 2006).

Columns and labels:
[1] = Plasma pharmacokinetics of ivermectin in cattle; assay type: in vivo
Description: (§1) Formulations according to the invention were tested for their efficacy in delivering benzimidazoles and macrocyclic lactones to the bloodstream of mammals (cattle), and compared to the efficacy in delivering these agents to animals' bloodstreams by standard commercially available drench (Fasinex 120®), and an experimental solvent-based triclabendazole/ivermectin pour-on formulation.
Cattle (typically Hereford or Hereford cross) with either natural or artificially infected burdens of fluke and nematodes were used in pen and field trials. Within a given trial animals were allotted into treatment groups, each having similar mean weights and fluke and nematode burdens. Experimental treatments were applied along the backline using a commercially available backliner gun fitted with a plastic shroud to ensure correct delivery of the formulation according to the protocol.
(§2) Blood samples (plasma) were taken by venipuncture of the jugular vein at the designated time intervals. Analysis for triclabendazole and ivermectin residues in the plasma was carried out and reported by commercial contract laboratories.
Ivermectin was extracted from the plasma using acetonitrile and concentrated by evaporation. The sample was cleaned up by solid phase extraction (SPE) chromatography and the ivermectin determined as the N-methyl imidazole derivative using reverse phase HPLC with fluorescence detection.

[2] = Plasma pharmacokinetics of triclabendazole (with sulphone and sulphoxide metabolites) in cattle; assay type: in vivo
Description: as §1
Cattle (typically Hereford or Hereford cross) with either natural or artificially infected burdens of fluke and nematodes were used in pen and field trials. […] Experimental treatments were applied along the backline using a commercially available backliner gun fitted with a plastic shroud to ensure correct delivery of the formulation according to the protocol.
as §2
The triclabendazole was extracted from the plasma using ethyl acetate. Following concentration and SPE clean up, the triclabendazole and its sulphone and sulphoxide metabolites were analysed by reverse phase HPLC using UV detection.

[3] = Table 2 pour-on 90 g/L triclabendazole + 10.0 g/L ivermectin, 1 mL/10 kg, 1.0 mg/kg
[4] = Table 2 pour-on 120 g/L triclabendazole + 5.0 g/L ivermectin, 1 mL/10 kg, 0.5 mg/kg
[5] = Table 2 pour-on 180 g/L triclabendazole + 7.5 g/L ivermectin, 1 mL/10 kg, 0.75 mg/kg
[6] = Table 3 pour-on 240 g/L triclabendazole + 3.33 g/L ivermectin (triethanolamine), 1 ml/6.67 kg, 0.5 mg/kg
[7] = Table 3 pour-on 240 g/L triclabendazole + 5 g/L ivermectin (sodium dodecyl sulphate), 1 ml/10 kg, 0.5 mg/kg
[8] = Table 3 pour-on 240 g/L triclabendazole + 10 g/L ivermectin (triethanolamine), 1 ml/20 kg, 0.5 mg/kg
[9] = Table 4 pour-on 180 g/L triclabendazole + 7.5 g/L ivermectin, 1 mL/15 kg, mean treatment area 110 cm^2, 0.5 mg/kg
[10] = Table 4 pour-on 240 g/L triclabendazole + 10.0 g/L ivermectin, 1 mL/20 kg, mean treatment area 76 cm^2, 0.5 mg/kg

Molecule: 22,23-dihydroavermectin B1 [Ivermectin]
- Ivermectin AUC [1, 3]: 88 ng·days/mL
- Ivermectin Mean plasma [1, 3]: 4.4 ng/mL
- Ivermectin Plasma Cmax [1, 3]: 8 ng/mL
- Ivermectin Tmax [1, 3]: 120 h
- Ivermectin AUC [1, 4]: 52 ng·days/mL
- Ivermectin Mean plasma [1, 4]: 2.5 ng/mL
- Ivermectin Plasma Cmax [1, 4]: 8 ng/mL
- Ivermectin Tmax [1, 4]: 120 h
- Ivermectin AUC [1, 5]: 79 ng·days/mL
- Ivermectin Mean plasma [1, 5]: 4.1 ng/mL
- Ivermectin Plasma Cmax [1, 5]: 13 ng/mL
- Ivermectin Tmax [1, 5]: 120 h
- Ivermectin AUC [1, 6]: 82 ng·days/mL
- Ivermectin Plasma Cmax [1, 6]: 7.5 ng/mL
- Ivermectin Tmax [1, 6]: 170 h
- Ivermectin AUC [1, 7]: 84 ng·days/mL
- Ivermectin Plasma Cmax [1, 7]: 9.5 ng/mL
- Ivermectin Tmax [1, 7]: 120 h
- Ivermectin AUC [1, 8]: 104 ng·days/mL
- Ivermectin Plasma Cmax [1, 8]: 10.4 ng/mL
- Ivermectin Tmax [1, 8]: 170 h
- Ivermectin AUC [1, 9]: 30 ng·days/mL
- Ivermectin Mean plasma conc^n [1, 9]: 1.7 ng/mL
- Ivermectin AUC [1, 10]: 43 ng·days/mL
- Ivermectin Mean plasma conc^n [1, 10]: 2.2 ng/mL

Molecule: CSc1nc2cc(Cl)c(Oc3cccc(Cl)c3Cl)cc2[nH]1 [Triclabendazole, 5-chloro-6-(2,3-dichlorophenoxy)-2-(methylthio)-benzimidazole]
- Triclabendazole AUC ([2]; Table 2 pour-on 90 g/L triclabendazole + 10.0 g/L ivermectin, 1 mL/10 kg, 9.0 mg/kg): 72 µg·days/mL
- Triclabendazole AUC ([2]; Table 2 pour-on 120 g/L triclabendazole + 5.0 g/L ivermectin, 1 mL/10 kg, 12 mg/kg): 85 µg·days/mL
- Triclabendazole AUC ([2]; Table 2 pour-on 180 g/L triclabendazole + 7.5 g/L ivermectin, 1 mL/10 kg, 18 mg/kg): 139 µg·days/mL
- Triclabendazole AUC ([2]; Table 3 pour-on 240 g/L triclabendazole + 3.33 g/L ivermectin (triethanolamine), 1 ml/6.67 kg, 36 mg/kg): 177 µg·days/mL
- Triclabendazole AUC ([2]; Table 3 pour-on 240 g/L triclabendazole + 5 g/L ivermectin (sodium dodecyl sulphate), 1 ml/10 kg, 24 mg/kg): 129 µg·days/mL
- Triclabendazole AUC ([2]; Table 3 pour-on 240 g/L triclabendazole + 10 g/L ivermectin (triethanolamine), 1 ml/20 kg, 12 mg/kg): 73 µg·days/mL
- Triclabendazole AUC ([2]; Table 4 pour-on 180 g/L triclabendazole + 7.5 g/L ivermectin, 1 mL/15 kg, mean treatment area 110 cm^2, 12.0 mg/kg): 65 µg·days/mL
- Triclabendazole AUC ([2]; Table 4 pour-on 240 g/L triclabendazole + 10.0 g/L ivermectin, 1 mL/20 kg, mean treatment area 76 cm^2, 12.0 mg/kg): 170 µg·days/mL
